In brackets after ≈: the same amount, converted by molar mass. Several values for one entry are separate records, joined by “and”; a condition that tells them apart may be missing. Equal values may be shown once. Read-outs that look alike come from different tables or passages of the source.
Columns and labels:
[1] = cited from earlier work
HIV-1ΔtatΔrev = format: cell-based
[2] = −20° C. in the absence of light and oxygen; cited from earlier work
HIV = conditions: hypericin with “molecular flashlight”, cell culture in vitro; cited from earlier work

## O=C(O)C1CSC(c2nc3ccc(O)cc3s2)=N1 [D-luciferin, 4,5-Dihydro-2-(6-hydroxy-2-benzothiazolyl)-4-thiazolecarboxylic acid]
[1]; DMSO
  solubility in DMSO: 50 mg/mL (≈ 178 mM)
[1]; methanol
  solubility in methanol: 10 mg/mL (≈ 35.7 mM)

## Cc1cc(O)c2c(=O)c3c(O)cc(O)c4c5c(O)cc(O)c6c(=O)c7c(O)cc(C)c8c1c2c(c34)c(c78)c65 [hypericin, Hypericin]
HIV-1ΔtatΔrev; day 0 (inoculum), hypericin exposed to the light (positive control)
  HIV p24 concentration as a function of time after infection: 1 ng/mL
HIV-1ΔtatΔrev; day 0 (inoculum), not exposed to light, hypericin 5 μmol, 2 h 37° C., replicates 1-3
  HIV p24 concentration as a function of time after infection: 1 ng/mL
HIV-1ΔtatΔrev; day 3, hypericin exposed to the light (positive control)
  HIV p24 concentration as a function of time after infection: 0.05 ng/mL
HIV-1ΔtatΔrev; day 3, not exposed to light, hypericin 5 μmol, 2 h 37° C., replicates 1-3
  HIV p24 concentration as a function of time after infection: 0.05 ng/mL
HIV-1ΔtatΔrev; day 6, hypericin exposed to the light (positive control)
  HIV p24 concentration as a function of time after infection: 0.05 ng/mL
HIV-1ΔtatΔrev; day 6, not exposed to light, hypericin 5 μmol, 2 h 37° C., replicates 1-3, listed as Hyp only
  HIV p24 concentration as a function of time after infection: 19.34 ng/mL and 12.13 ng/mL and 11 ng/mL
HIV-1ΔtatΔrev; day 9, hypericin exposed to the light (positive control)
  HIV p24 concentration as a function of time after infection: 3 ng/mL
HIV-1ΔtatΔrev; day 9, not exposed to light, hypericin 5 μmol, 2 h 37° C., replicates 1-3, listed as Hyp only
  HIV p24 concentration as a function of time after infection: 1,055 ng/ml and 831 ng/ml and 1,120 ng/ml
HIV-1ΔtatΔrev; day 13, hypericin exposed to the light (positive control)
  HIV p24 concentration as a function of time after infection: 2.9 ng/mL
HIV-1ΔtatΔrev; day 13, not exposed to light, hypericin 5 μmol, 2 h 37° C., replicates 1-3, listed as Hyp only
  HIV p24 concentration as a function of time after infection: 1,985 ng/ml and 3,501 ng/ml and 3,270 ng/ml
HIV-1ΔtatΔrev; day 16, hypericin exposed to the light (positive control)
  HIV p24 concentration as a function of time after infection: 0.05 ng/mL
HIV-1ΔtatΔrev; day 16, not exposed to light, hypericin 5 μmol, 2 h 37° C., replicates 1-3, listed as Hyp only
  HIV p24 concentration as a function of time after infection: 1,870 ng/ml and 1543 ng/ml and 923 ng/ml
HIV-1ΔtatΔrev; day 20, hypericin exposed to the light (positive control)
  HIV p24 concentration as a function of time after infection: 6.6 ng/mL
HIV-1ΔtatΔrev; day 20, not exposed to light, hypericin 5 μmol, 2 h 37° C., replicates 1-3, listed as Hyp only
  HIV p24 concentration as a function of time after infection: 1,763 ng/ml and 2,789 ng/ml and 2,775 ng/ml
[2]
  storage stability: stable
HIV
  effect on host cells: without harming these cells
[1]; DMSO
  solubility: soluble in DMSO
